Measured values published in ChEMBL document CHEMBL1201862, “PubChem BioAssay data set” (2004).
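Test compounds were applied to cells in 96-well plates for 48 hours at 5 doses. GI50 is the concentration that inhibits growth by half.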 Calls of active or inactive are those of the source. Cut-off read from the data, not from the text of the source: active = GI50 up to about 1.1 µM and inactive = higher.

Assays:
Assay in all cases: NCI anticancer screen, dose series, 48 h
[1] = tested on: 786-0
[2] = tested on: CCRF-CEM
[3] = tested on: DLD-1
[4] = tested on: EKVX
[5] = tested on: HCC 2998
[6] = tested on: HCT-15
[7] = tested on: K562
[8] = tested on: LOX IMVI
[9] = tested on: MOLT-4
[10] = tested on: NCI-H460
[11] = tested on: OVCAR-4
[12] = tested on: OVCAR-5
[13] = tested on: SF-268
[14] = tested on: SF-295
[15] = tested on: SK-MEL-5
[16] = tested on: TK-10
[17] = tested on: UACC-257
[18] = tested on: UACC-62

Structure (SMILES) | GI50 [1] | GI50 [2] | GI50 [3] | GI50 [4] | GI50 [5] | GI50 [6] [µM] | GI50 [7] | GI50 [8] | GI50 [9] | GI50 [10] | GI50 [11] | GI50 [12] | GI50 [13] | GI50 [14] | GI50 [15] | GI50 [16] | GI50 [17] | GI50 [18]
O=C1CCC(c2ccccc2)C(O)(C(=O)O)C1 (stereo not drawn) | > 100 µM (inactive) | > 100 µM (inactive) | > 100 µM (inactive) | > 100 µM (inactive) | > 100 µM (inactive) | > 100 | > 100 µM (inactive) | > 100 µM (inactive) | > 100 µM (inactive) | > 100 µM (inactive) | > 100 µM (inactive) | > 100 µM (inactive) | > 100 µM (inactive) | > 100 µM (inactive) | > 100 µM (inactive) | > 100 µM (inactive) | > 100 µM (inactive) | > 100 µM (inactive)
COC1=CC(=O)C(O)=C(CC2(C)C(C)CCC3(C)C2CCCC3(C)C)C1=O (stereo not drawn) | 3.86 µM (inactive) | 1.91 µM (inactive) | 5.53 µM (inactive) | 5.83 µM (inactive) | 3.6 µM (inactive) | 3.3 | 2.7 µM (inactive) | 4.6 µM (inactive) | 2.4 µM (inactive) | 1.88 µM (inactive) | 4.18 µM (inactive) | 10.3 µM (inactive) | 4.37 µM (inactive) | 2.89 µM (inactive) | 3.76 µM (inactive) | 4.97 µM (inactive) | 3.84 µM (inactive) | 2.04 µM (inactive)
COc1cccc(/C=C(\NC(C)=O)c2nc3cc(Cl)ccc3[nH]2)c1 | > 100 µM (inactive) | > 100 µM (inactive) | > 100 µM (inactive) | > 100 µM (inactive) | > 100 µM (inactive) | > 100 | > 100 µM (inactive) |  | > 100 µM (inactive) |  | > 100 µM (inactive) | > 100 µM (inactive) | > 100 µM (inactive) | > 100 µM (inactive) | > 100 µM (inactive) | > 100 µM (inactive) |  | > 100 µM (inactive)
O=C(Nc1cccc(Cc2cccc(NC(=O)c3ccccc3)c2)c1)c1ccccc1 | 26.9 µM (inactive) | > 100 µM (inactive) | 91.8 µM (inactive) | 23.3 µM (inactive) | > 100 µM (inactive) | 89.3 | > 100 µM (inactive) | > 100 µM (inactive) | > 100 µM (inactive) | 36.1 µM (inactive) | 6.79 µM (inactive) | > 100 µM (inactive) | 34 µM (inactive) | 16.5 µM (inactive) | 25.1 µM (inactive) | > 100 µM (inactive) | 29.8 µM (inactive) | 23.8 µM (inactive)
CSc1snc2sc3c(Cl)nnnc3c12 | 15.9 µM (inactive) | 2.12 µM (inactive) | 10 µM (inactive) | 19.6 µM (inactive) | 6.01 µM (inactive) | 8.15 | 2.36 µM (inactive) | 3.12 µM (inactive) | 2.98 µM (inactive) | 15.8 µM (inactive) | 14.8 µM (inactive) | 17.2 µM (inactive) | 16.9 µM (inactive) | 18 µM (inactive) | 16.7 µM (inactive) | 16.9 µM (inactive) | 12.8 µM (inactive) | 14.2 µM (inactive)
COc1ccc(/C=c2/sc3n(c2=O)NC2(CCC(C)CC2)NN=3)cc1 (stereo not drawn) | > 100 µM (inactive) | > 100 µM (inactive) | > 100 µM (inactive) | > 100 µM (inactive) | > 100 µM (inactive) |  | > 100 µM (inactive) | > 100 µM (inactive) | > 100 µM (inactive) | > 100 µM (inactive) | 52.5 µM (inactive) | > 100 µM (inactive) | > 100 µM (inactive) | > 100 µM (inactive) | 49.7 µM (inactive) | > 100 µM (inactive) |  | > 100 µM (inactive)
CC1(C)C=N[N+]2(C)C3C=CC(CC3)C12 (stereo not drawn) | > 100 µM (inactive) | > 100 µM (inactive) | > 100 µM (inactive) | > 100 µM (inactive) | > 100 µM (inactive) | > 100 | > 100 µM (inactive) | > 100 µM (inactive) | > 100 µM (inactive) | > 100 µM (inactive) |  | > 100 µM (inactive) | > 100 µM (inactive) | > 100 µM (inactive) | > 100 µM (inactive) | > 100 µM (inactive) | > 100 µM (inactive) | > 100 µM (inactive)
O=C(OCN1C(=O)C2C3C=CC(C2C1=O)C1C2C(=O)N(COC(=O)C4CCCN4)C(=O)C2C31)C1CCCN1 (stereo not drawn) | 35.6 µM (inactive) | 21.8 µM (inactive) | 34.2 µM (inactive) | > 100 µM (inactive) | > 100 µM (inactive) | 25 | > 67.9 µM (inactive) | 35.9 µM (inactive) | 32.3 µM (inactive) | 22.6 µM (inactive) | > 58.3 µM (inactive) | > 100 µM (inactive) | > 51.3 µM (inactive) | > 82.6 µM (inactive) | 62.5 µM (inactive) | > 100 µM (inactive) | > 79.4 µM (inactive) | > 76.7 µM (inactive)
